Laboratory results: patent publication US20140106356A1, “KIT FOR DRUG METABOLISM DETERMINATION AND TOXICITY PREDICTION” (NATIONAL TAIWAN UNIVERSITY, priority 2012, published 2014)

System: CYP1B1
Experiment: Cell-based CYP1B1 enzyme activity assay (Luciferin-CEE luminescence, normalized to genomic DNA) in 10F-HDF spheroid-scaffold culture
Conditions: addition to the spheroid-scaffold culture of 10F-HDFs (GCH tri-copolymer scaffold); FIG. 5B

SMILES: COc1ccc2[nH]c([S+]([O-])Cc3ncc(C)c(OC)c3C)nc2c1 (stereo not shown) [omeprazole]
- induction of CYP1B1 activities: did not induce
